Measured values from patent publication US10167262B2, “Herbicidal substituted 3-arylpyrazoles” (FMC CORPORATION, priority 2014, dated 2019).

How the values were obtained:
Assay in all cases: Test C postemergence greenhouse test, plant response rating 0-100
Format in all cases: in vivo
[1] = tested on: bermudagrass (Cynodon dactylon); conditions: for Plant response rating, Bermudagrass: scale 0 to 100
Summary of the method: (§1)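 First, plants were raised in a sphagnum peat, vermiculite and nutrient medium to 1–4 leaves. Next, formulated test compounds were applied over the foliage. Finally, after 13–15 greenhouse days, injury was compared with controls and scored 0–100.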

[2] = tested on: canarygrass (Phalaris minor)
Summary of the method: as §1

[3] = tested on: cocklebur (common cocklebur, Xanthium strumarium)
Summary of the method: as §1

[4] = tested on: deadnettle (henbit deadnettle, Lamium amplexicaule)
Summary of the method: as §1

[5] = tested on: downy bromegrass (Bromus tectorum); conditions: for Plant response rating, Bromegrass, Downy: scale 0 to 100
Summary of the method: as §1

[6] = tested on: goosegrass (Eleusine indica)
Summary of the method: as §1

[7] = tested on: green foxtail (Setaria viridis)
Summary of the method: as §1

[8] = tested on: surinam grass (Brachiaria decumbens)
Summary of the method: as §1

[9] = tested on: windgrass (Apera spica-venti)
Summary of the method: as §1

[10] = tested on: winter barley (Hordeum vulgare); conditions: for Plant response rating, Barley: scale 0 to 100
Summary of the method: as §1

[11] = tested on: woolly cupgrass (Eriochloa villosa)
Summary of the method: as §1

Cn1cc(C(=NN2CCCC2)c2ccccc2)c(-c2cc(Cl)c(Cl)c(Cl)c2)n1 [Compound 25]
25: Plant response rating, Cocklebur ([3]; 250 g ai/ha, scale 0 to 100) | Plant response rating, Windgrass ([9]; 250 g ai/ha, scale 0 to 100)
10: Plant response rating, Barley ([10]; 250 g ai/ha)
15: Plant response rating (0 to 100), Cocklebur ([3]; 62 g ai/ha) | Plant response rating (0 to 100), Cocklebur ([3]; 125 g ai/ha) | Plant response rating, Foxtail, Green ([7]; 250 g ai/ha, scale 0 to 100)
5: Plant response rating, Canarygrass ([2]; 250 g ai/ha, scale 0 to 100) | Plant response rating (0 to 100), Cocklebur ([3]; 31 g ai/ha) | Plant response rating (0 to 100), Foxtail, Green ([7]; 125 g ai/ha) | Plant response rating, Barley ([10]; 125 g ai/ha)
0: Plant response rating (0 to 100), Bermudagrass ([1]; 31 g ai/ha) | Plant response rating (0 to 100), Bermudagrass ([1]; 62 g ai/ha) | Plant response rating, Bermudagrass ([1]; 125 g ai/ha) | Plant response rating, Bermudagrass ([1]; 250 g ai/ha) | Plant response rating (0 to 100), Canarygrass ([2]; 31 g ai/ha) | Plant response rating (0 to 100), Canarygrass ([2]; 62 g ai/ha) | Plant response rating (0 to 100), Canarygrass ([2]; 125 g ai/ha) | Plant response rating (0 to 100), Deadnettle ([4]; 31 g ai/ha) | Plant response rating (0 to 100), Deadnettle ([4]; 62 g ai/ha) | Plant response rating (0 to 100), Deadnettle ([4]; 125 g ai/ha) | Plant response rating, Deadnettle ([4]; 250 g ai/ha, scale 0 to 100) | Plant response rating (0 to 100), Bromegrass, Downy ([5]; 31 g ai/ha) | Plant response rating (0 to 100), Bromegrass, Downy ([5]; 62 g ai/ha) | Plant response rating, Bromegrass, Downy ([5]; 125 g ai/ha) | Plant response rating, Bromegrass, Downy ([5]; 250 g ai/ha) | Plant response rating (0 to 100), Goosegrass ([6]; 31 g ai/ha) | Plant response rating (0 to 100), Goosegrass ([6]; 62 g ai/ha) | Plant response rating (0 to 100), Goosegrass ([6]; 125 g ai/ha) | Plant response rating, Goosegrass ([6]; 250 g ai/ha, scale 0 to 100) | Plant response rating (0 to 100), Foxtail, Green ([7]; 31 g ai/ha) | Plant response rating (0 to 100), Foxtail, Green ([7]; 62 g ai/ha) | Plant response rating (0 to 100), Surinam Grass ([8]; 62 g ai/ha) | Plant response rating (0 to 100), Surinam Grass ([8]; 125 g ai/ha) | Plant response rating, Surinam Grass ([8]; 250 g ai/ha, scale 0 to 100) | Plant response rating (0 to 100), Windgrass ([9]; 62 g ai/ha) | Plant response rating (0 to 100), Windgrass ([9]; 125 g ai/ha) | Plant response rating (0 to 100), Barley ([10]; 31 g ai/ha) | Plant response rating (0 to 100), Barley ([10]; 62 g ai/ha) | Plant response rating (0 to 100), Cupgrass, Woolly ([11]; 31 g ai/ha) | Plant response rating (0 to 100), Cupgrass, Woolly ([11]; 62 g ai/ha) | Plant response rating (0 to 100), Cupgrass, Woolly ([11]; 125 g ai/ha) | Plant response rating, Cupgrass, Woolly ([11]; 250 g ai/ha, scale 0 to 100)
